Results on one molecule are retold here after ChEMBL document CHEMBL1143066, “Characterization and optimization of selective, nonpeptidic inhibitors of cathepsin S with an unprecedented binding mode” (J Med Chem, 2007).

The species named for assay [1] is Homo sapiens. In words: Selectivity for cathepsin S over cathepsin B.
The species entered for assay [2] is Homo sapiens. In words: Selectivity for cathepsin S over cathepsin L.
The species named for assay [3] is Homo sapiens. In words: Selectivity for cathepsin S over cathepsin K.

With `CC(C)Cc1ccc(-c2ccccc2OCC=O)c(F)c1F`, the results for the Activity in assay [1], in assay [2] and in assay [3] were > 1000, > 1000 and > 100, respectively.
